Values of other authors as cited in US10683273B2, “Compounds as DNA probes, methods and applications thereof” (JAWAHARLAL NEHRU CENTRE FOR ADVANCED SCIENTIFIC RESEARCH, priority 2015, dated 2020).

What was measured:
[1] = tested on: DNA; conditions: literature values (footnotes a, b); cited from earlier work
[2] = literature values (footnotes a, b); cited from earlier work

Row | Compound | Stokes shift in presence of DNA [1] | Stokes shift in absence of DNA [2]
1 | CN1C(=Cc2cc[n+](C)c3ccccc23)Oc2ccccc21 [Oxazole yellow (YO), Oxazole yellow] | 19 nm | 100 nm
2 | CN(C)CCCN(CCCN(C)C)c1cc(C=C2Sc3ccccc3N2C)c2ccccc2[n+]1-c1ccccc1 [Picogreen] | 21 nm | 30 nm
3 | CCCN(CCCN(C)C)c1cc(/C=C2/Sc3ccccc3N2C)c2ccccc2[n+]1-c1ccccc1 [SYBR Green 1] | 26 nm | 36 nm
4 | CN1/C(=C/c2cc[n+](CCC[N+](C)(C)CCC[N+](C)(C)CCC[n+]3ccc(/C=C4\Sc5ccccc5N4C)c4ccccc43)c3ccccc23)Sc2ccccc21.[I-].[I-].[I-].[I-] [TOTO-1] | 19 nm | 149 nm
5 | CN1C(=Cc2cc[n+](C)c3ccccc23)Sc2ccccc21 [Thiazole orange (TO), Thiazole orange] | 18 nm | 139 nm
6 | CN1/C(=C/c2cc[n+](CCC[N+](C)(C)CCC[N+](C)(C)CCC[n+]3ccc(/C=C4/Oc5ccccc5N4C)c4ccccc43)c3ccccc23)Oc2ccccc21.[I-].[I-].[I-].[I-] [YOYO-1] | 20 nm | 106 nm
